Measured values taken from patent US20230265151A1, “GIP/GLP1 CO-AGONIST COMPOUNDS” (priority 2020, published 2023).
Where two headings read alike, the source gives them in different places.

Assays:
Format in all cases: cell-based
hGIPR = molecular target: T1, hGIPR (Homo sapiens, UniProt P48546); assay: Functional cAMP formation (HTRF) in HEK-293 clonal cells expressing hGIPR, 0.1% bovine casein, without or with 1.0% human serum albumin; conditions: 37° C.; for Emax: HEK293, cAMP, percent of maximal response to GIP(1-42)NH2, read-out: hGIPR Emax, % ± SEM; for EC50: cAMP, read-out: hGIPR EC50, nM (SEM, n)
T1 construct: expressed in transfected cells
T1 sequence (P48546 22-466): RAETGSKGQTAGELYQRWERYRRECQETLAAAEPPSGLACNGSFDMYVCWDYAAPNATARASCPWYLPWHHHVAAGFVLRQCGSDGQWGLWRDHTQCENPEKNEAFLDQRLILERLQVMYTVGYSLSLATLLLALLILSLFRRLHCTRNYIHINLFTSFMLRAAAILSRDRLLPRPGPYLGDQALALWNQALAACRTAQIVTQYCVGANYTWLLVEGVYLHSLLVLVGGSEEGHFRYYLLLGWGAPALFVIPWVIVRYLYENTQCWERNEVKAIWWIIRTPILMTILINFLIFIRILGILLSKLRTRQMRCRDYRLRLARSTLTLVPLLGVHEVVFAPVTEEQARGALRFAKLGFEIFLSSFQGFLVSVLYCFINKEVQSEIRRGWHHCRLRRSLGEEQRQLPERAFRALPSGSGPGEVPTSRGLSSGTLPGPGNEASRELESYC
How it was run: (§1)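 Readings of the HTRF 665/620 nm ratio, which falls as cAMP rises, were converted to nM cAMP using a standard curve after 30 min peptide exposure at 37° C.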

hGCGR = molecular target: T2, hGCGR (Homo sapiens, UniProt P47871); assay: Functional cAMP formation (HTRF) in HEK-293 clonal cells expressing hGCGR, 0.1% bovine casein, without or with 1.0% human serum albumin; conditions: cAMP, 37° C., read-out: hGCGR EC50, nM (SEM, n)
T2 construct: expressed in transfected cells
T2 sequence (P47871 26-477): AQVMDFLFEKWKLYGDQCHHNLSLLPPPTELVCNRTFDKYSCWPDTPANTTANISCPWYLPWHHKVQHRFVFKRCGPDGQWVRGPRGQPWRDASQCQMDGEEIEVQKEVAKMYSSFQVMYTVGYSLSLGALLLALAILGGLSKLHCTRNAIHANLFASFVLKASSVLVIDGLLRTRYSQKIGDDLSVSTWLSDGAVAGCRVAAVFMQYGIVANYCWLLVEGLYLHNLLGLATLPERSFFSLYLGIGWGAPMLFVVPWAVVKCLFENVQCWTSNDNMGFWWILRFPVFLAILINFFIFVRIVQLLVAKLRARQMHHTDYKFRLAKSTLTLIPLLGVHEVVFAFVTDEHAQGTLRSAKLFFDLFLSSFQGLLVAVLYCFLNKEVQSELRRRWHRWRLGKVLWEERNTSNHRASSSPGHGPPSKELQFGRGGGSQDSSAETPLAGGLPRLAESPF
How it was run: as §1

hGLP-1R = hGLP-1R (Homo sapiens, UniProt P43220); assay: Functional cAMP formation (HTRF) in HEK-293 clonal cells expressing hGLP-1R, 0.1% bovine casein, without or with 1.0% human serum albumin; parameters: expressed in transfected cells; conditions: 37° C.; for Emax: HEK293, cAMP, percent of maximal response to GLP-1(7-36)NH2, read-out: hGLP-1R Emax, % ± SEM; for EC50: cAMP, read-out: hGLP-1R EC50, nM (SEM, n)
hGLP-1R, sequence (P43220 24-463): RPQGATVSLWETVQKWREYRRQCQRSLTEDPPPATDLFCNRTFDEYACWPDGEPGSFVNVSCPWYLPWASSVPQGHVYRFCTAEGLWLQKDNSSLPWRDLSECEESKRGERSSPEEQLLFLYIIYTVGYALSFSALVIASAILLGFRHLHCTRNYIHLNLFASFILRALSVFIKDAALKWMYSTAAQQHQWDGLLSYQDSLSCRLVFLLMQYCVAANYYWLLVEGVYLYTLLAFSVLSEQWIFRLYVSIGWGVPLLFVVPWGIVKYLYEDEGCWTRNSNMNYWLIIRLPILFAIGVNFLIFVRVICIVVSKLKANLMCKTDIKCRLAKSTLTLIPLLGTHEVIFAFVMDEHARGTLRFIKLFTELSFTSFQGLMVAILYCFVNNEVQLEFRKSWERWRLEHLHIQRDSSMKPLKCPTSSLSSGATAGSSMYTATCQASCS
How it was run: as §1

[1] = 0.1% bovine casein and 1.0% human serum albumin
[2] = 0.1% bovine casein, arithmetic mean
[3] = 0.1% bovine casein (no human serum albumin), geometric mean
[4] = 0.1% bovine casein and 1.0% human serum albumin, geometric mean (SEM, n)

SMILES	Emax (hGIPR; [1]) [%]	Emax (hGIPR; [2]) [%]	EC50 (hGIPR; [3]) [nM]	EC50 (hGCGR; [3]) [nM]	EC50 (hGCGR; [4]) [nM]	Emax (hGLP-1R; [2]) [%]	EC50 (hGLP-1R; [3]) [nM]	Emax (hGLP-1R; [1]) [%]	EC50 (hGIPR; [4]) [nM]	EC50 (hGLP-1R; [4]) [nM]
CC[C@H](C)[C@H](NC(=O)[C@H](CC(C)C)NC(=O)[C@](C)(Cc1ccc(O)cc1)NC(=O)[C@@H](CCC(=O)O)NC(=O)[C@@H](NC(=O)[C@H](Cc1ccccc1)NC(=O)[C@H](CCCCNC(=O)COCCOCCNC(=O)COCCOCCNC(=O)CCCCCCCCCCCCC(=O)O)NC(=O)C(C)(C)NC(=O)[C@H](CCC(N)=O)NC(=O)[C@H](C)NC(=O)[C@H](CCCCNC(=O)COCCOCCNC(=O)COCCOCCNC(=O)CCCCCCCCCCCCC(=O)O)NC(=O)[C@H](CCCN)NC(=O)[C@H](CC(=O)O)NC(=O)[C@H](CC(C)C)NC(=O)[C@](C)(CC(C)C)NC(=O)[C@@H](NC(=O)C(C)(C)NC(=O)[C@H](Cc1ccncc1)NC(=O)[C@H](CC(=O)O)NC(=O)[C@H](CO)NC(=O)[C@@H](NC(=O)[C@](C)(Cc1ccccc1F)NC(=O)[C@@H](NC(=O)CNC(=O)[C@H](CCC(=O)O)NC(=O)C(C)(C)NC(=O)[C@@H](N)Cc1ccc(O)cc1)[C@@H](C)O)[C@@H](C)O)[C@@H](C)CC)[C@@H](C)CC)C(=O)N[C@@H](CCC(=O)O)C(=O)NCC(=O)NCC(=O)N1CCC[C@H]1C(=O)N[C@@H](CO)C(=O)N[C@@H](CO)C(=O)NCC(=O)N[C@@H](C)C(=O)N1CCC[C@H]1C(=O)N1CCC[C@H]1C(=O)N1CCC[C@H]1C(=O)N[C@@H](CO)C(N)=O [Example 384]	83.5	94.5	0.0124	> 9950	> 9950	98.2	0.308	–	–	–
CC[C@H](C)[C@H](NC(=O)[C@H](CC(C)C)NC(=O)[C@](C)(Cc1ccc(O)cc1)NC(=O)[C@@H](CCC(=O)O)NC(=O)[C@@H](NC(=O)[C@H](Cc1ccccc1)NC(=O)[C@H](CCCCNC(=O)COCCOCCNC(=O)COCCOCCNC(=O)CCCCCCCCCCCCC(=O)O)NC(=O)C(C)(C)NC(=O)[C@H](CCC(N)=O)NC(=O)[C@H](C)NC(=O)[C@H](CCCCNC(=O)COCCOCCNC(=O)COCCOCCNC(=O)CCCCCCCCCCCCC(=O)O)NC(=O)[C@H](CCCN)NC(=O)[C@H](CC(=O)O)NC(=O)[C@H](CC(C)C)NC(=O)[C@](C)(CC(C)C)NC(=O)[C@@H](NC(=O)C(C)(C)NC(=O)[C@H](Cc1ccc(O)cc1)NC(=O)[C@H](CC(=O)O)NC(=O)[C@H](CO)NC(=O)[C@@H](NC(=O)[C@](C)(Cc1ccccc1F)NC(=O)[C@@H](NC(=O)CNC(=O)[C@H](CCC(=O)O)NC(=O)C(C)(C)NC(=O)[C@@H](N)Cc1ccc(O)cc1)[C@@H](C)O)[C@@H](C)O)[C@@H](C)CC)[C@@H](C)CC)C(=O)N[C@@H](CCC(=O)O)C(=O)NCC(=O)NCC(=O)N1CCC[C@H]1C(=O)N[C@@H](CO)C(=O)N[C@@H](CO)C(=O)NCC(=O)N[C@@H](C)C(=O)N1CCC[C@H]1C(=O)N1CCC[C@H]1C(=O)N1CCC[C@H]1C(=O)N[C@@H](CO)C(N)=O [Example 385]	83.5	95.2	0.0154	> 9950	> 9950	100	0.189	112	–	–
CC[C@H](C)[C@H](NC(=O)[C@H](CC(C)C)NC(=O)[C@](C)(Cc1ccc(O)cc1)NC(=O)[C@@H](CCC(=O)O)NC(=O)[C@@H](NC(=O)[C@H](Cc1ccccc1)NC(=O)[C@H](CCCCNC(=O)COCCOCCNC(=O)COCCOCCNC(=O)CCCCCCCCCCCCC(=O)O)NC(=O)C(C)(C)NC(=O)[C@H](CCC(N)=O)NC(=O)[C@H](C)NC(=O)[C@H](CCCCNC(=O)COCCOCCNC(=O)COCCOCCNC(=O)CCCCCCCCCCCCC(=O)O)NC(=O)[C@H](CCCN)NC(=O)[C@H](CC(=O)O)NC(=O)[C@H](CC(C)C)NC(=O)[C@](C)(CC(C)C)NC(=O)[C@@H](NC(=O)C(C)(C)NC(=O)[C@@H](NC(=O)[C@H](CC(=O)O)NC(=O)[C@H](CO)NC(=O)[C@@H](NC(=O)[C@](C)(Cc1ccccc1F)NC(=O)[C@@H](NC(=O)CNC(=O)[C@H](CCC(=O)O)NC(=O)C(C)(C)NC(=O)[C@@H](N)Cc1ccc(O)cc1)[C@@H](C)O)[C@@H](C)O)C(C)C)[C@@H](C)CC)[C@@H](C)CC)C(=O)N[C@@H](CCC(=O)O)C(=O)NCC(=O)NCC(=O)N1CCC[C@H]1C(=O)N[C@@H](CO)C(=O)N[C@@H](CO)C(=O)NCC(=O)N[C@@H](C)C(=O)N1CCC[C@H]1C(=O)N1CCC[C@H]1C(=O)N1CCC[C@H]1C(=O)N[C@@H](CO)C(N)=O [Example 386]	81.3	95.7	0.0174	> 9950	> 9950	98.9	0.194	96.8	2.08	–
CC[C@H](C)[C@H](NC(=O)[C@H](CC(C)C)NC(=O)[C@](C)(Cc1ccc(O)cc1)NC(=O)[C@@H](CCC(=O)O)NC(=O)[C@@H](NC(=O)[C@H](Cc1ccccc1)NC(=O)[C@H](CCC(=O)O)NC(=O)C(C)(C)NC(=O)[C@H](CCC(N)=O)NC(=O)[C@H](C)NC(=O)[C@H](CCCCNC(=O)COCCOCCNC(=O)COCCOCCNC(=O)CCCCCCCCCCCCC(=O)O)NC(=O)[C@H](CCCN)NC(=O)[C@H](CC(=O)O)NC(=O)[C@H](CC(C)C)NC(=O)[C@](C)(CC(C)C)NC(=O)[C@@H](NC(=O)C(C)(C)NC(=O)[C@H](Cc1ccncc1)NC(=O)[C@H](CC(=O)O)NC(=O)[C@H](CO)NC(=O)[C@@H](NC(=O)[C@](C)(Cc1ccccc1F)NC(=O)[C@@H](NC(=O)CNC(=O)[C@H](CCC(=O)O)NC(=O)C(C)(C)NC(=O)[C@@H](N)Cc1ccc(O)cc1)[C@@H](C)O)[C@@H](C)O)[C@@H](C)CC)[C@@H](C)CC)C(=O)N[C@@H](CCCCNC(=O)COCCOCCNC(=O)COCCOCCNC(=O)CCCCCCCCCCCCC(=O)O)C(=O)NCC(=O)NCC(=O)N1CCC[C@H]1C(=O)N[C@@H](CO)C(=O)N[C@@H](CO)C(=O)NCC(=O)N[C@@H](C)C(=O)N1CCC[C@H]1C(=O)N1CCC[C@H]1C(=O)N1CCC[C@H]1C(=O)N[C@@H](CO)C(N)=O [Example 387]	93	–	0.0137	> 9950	> 9950	–	0.32	–	–	–
CC[C@H](C)[C@H](NC(=O)[C@H](CC(C)C)NC(=O)[C@](C)(Cc1ccc(O)cc1)NC(=O)[C@@H](CCC(=O)O)NC(=O)[C@@H](NC(=O)[C@H](Cc1ccccc1)NC(=O)[C@H](CCC(=O)O)NC(=O)C(C)(C)NC(=O)[C@H](CCC(N)=O)NC(=O)[C@H](C)NC(=O)[C@H](CCCCNC(=O)COCCOCCNC(=O)COCCOCCNC(=O)CCCCCCCCCCCCC(=O)O)NC(=O)[C@H](CCCN)NC(=O)[C@H](CC(=O)O)NC(=O)[C@H](CC(C)C)NC(=O)[C@](C)(CC(C)C)NC(=O)[C@@H](NC(=O)C(C)(C)NC(=O)[C@H](Cc1ccc(O)cc1)NC(=O)[C@H](CC(=O)O)NC(=O)[C@H](CO)NC(=O)[C@@H](NC(=O)[C@](C)(Cc1ccccc1F)NC(=O)[C@@H](NC(=O)CNC(=O)[C@H](CCC(=O)O)NC(=O)C(C)(C)NC(=O)[C@@H](N)Cc1ccc(O)cc1)[C@@H](C)O)[C@@H](C)O)[C@@H](C)CC)[C@@H](C)CC)C(=O)N[C@@H](CCCCNC(=O)COCCOCCNC(=O)COCCOCCNC(=O)CCCCCCCCCCCCC(=O)O)C(=O)NCC(=O)NCC(=O)N1CCC[C@H]1C(=O)N[C@@H](CO)C(=O)N[C@@H](CO)C(=O)NCC(=O)N[C@@H](C)C(=O)N1CCC[C@H]1C(=O)N1CCC[C@H]1C(=O)N1CCC[C@H]1C(=O)N[C@@H](CO)C(N)=O [Example 388]	82.1	98.3	0.0103	> 9950	> 9950	95.4	0.292	–	–	6.31
